The values that follow come from patent US5449787A, “N,N'-disubstituted amide derivatives” (Kyorin Pharmaceutical Co., Ltd., priority 1992, dated 1995).

Structures can show the parent of a compound that is named as a salt.

Assay [1] concerns the target T1, 5-HT3 receptor (Rattus norvegicus, UniProt P35563).
T1 sequence (P35563 24-483): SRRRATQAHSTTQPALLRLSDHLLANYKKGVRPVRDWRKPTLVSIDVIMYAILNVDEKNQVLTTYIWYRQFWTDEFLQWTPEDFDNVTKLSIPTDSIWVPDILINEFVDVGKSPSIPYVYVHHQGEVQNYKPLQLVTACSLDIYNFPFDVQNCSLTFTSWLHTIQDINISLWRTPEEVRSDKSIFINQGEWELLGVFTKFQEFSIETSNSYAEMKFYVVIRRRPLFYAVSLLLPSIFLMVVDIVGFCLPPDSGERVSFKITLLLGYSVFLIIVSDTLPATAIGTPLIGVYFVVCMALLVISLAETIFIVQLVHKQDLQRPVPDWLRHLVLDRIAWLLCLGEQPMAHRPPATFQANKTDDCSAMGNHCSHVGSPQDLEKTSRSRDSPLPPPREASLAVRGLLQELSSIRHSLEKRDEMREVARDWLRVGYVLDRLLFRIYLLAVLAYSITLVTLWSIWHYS
Briefly: 5-HT3 receptor-binding assay using [3H]GR65630 (rat cerebral cortex synaptic membrane). Further details: A crude specimen of synaptic membrane was prepared from the cerebral cortex of rat; from tissue; host or cells: rat cerebral cortex, crude synaptic membrane. Particulars: [3H]GR65630 0.2-0.3 nM, 50 mM HEPES with Triton X-100, 30 minutes at 23° C., nonspecific: 100 μM metoclopramide. An excerpt:
(§1) The compound of the present invention has an antagonistic action to 5-HT receptor, in particular, to 5-HT3 receptor. Affinity of the compound of the present invention to 5-HT3 receptor is shown by a receptor-binding assay [refer to Gavin J. Kilpatrick et al, Eur. J. Pharmacol., 159, 157 (1989)] using [^3 H]GR65630 for a tracer legend. Moreover, the antagonistic action to 5-HT3 receptor is shown through inhibition of von Bezold Jarisch reflex caused by intravenously administering 5-HT to rat.
The specific 5-HT3 receptor-binding assay was performed according to the method by G. J. Kilpatrick et al. using [^3 H] GR 65630 as a tracer ligand.
A crude specimen of synaptic membrane was prepared from the cerebral cortex of rat and used for experiment by suspending it into 50 mM IIEPES buffer (pl 7.4) added with Triton X-100.
Next, testing compounds of several kinds of concentration and tritium-labelled GR 65630 (final concentration 0.2-0.3 nM) were added to the suspension of membrane and allowed to react for 30 minutes at 23° C. After the reaction, the reaction mixture was filtered under suction and the filter was washed with 50 mM HEPES buffer. Then, the radioactivity left behind on the filter was determined with a liquid scintillation counter.
The nonspecific binding was determined in the presence of 100 μM metoclopramide.
Then, 50% inhibitory concentration (IC50) of the compounds of Examples 10 through 12 was determined graphically (Table 1).

In assay [2] the target is T1, 5-HT3 receptor. Briefly: Antagonistic action on von Bezold Jarisch reflex. Details: Under the anesthetization of rat with urethane/chloralose; from tissue; host or cells: whole anaesthetized rat (in vivo); receptor endogenous, by own knowledge on vagal afferents. Conditions: urethane/chloralose-anesthetized rat, 5-HT 1 mg/kg intravenous; dose of test compound not given. Type of assay: in vivo.
Excerpt: as §1
The antagonistic action of testing compounds to 5-HT3 was assayed according to the method described in Naunyn-Schmiedeberg's Arch. Pharmacol., vol. 326, 36 (1984).
Under the anesthetization of rat with urethane/chloralose, the blood pressure was monitored with hemodynamometer frown carotid arteries and the heart rate was monitored from electrocardiogram.

At 5-HT3 receptor [1], `CCN(C)[C@@H]1CN(C(=O)c2nn(C)c3ccccc23)C[C@@H]1C` (relative stereo) [Example 10, Cis-3-(N-ethyl-N-methyl)amino-4-methyl-1-(1-methylind-azol-3-ylcarbonyl)pyrrolidine hydrochloride] returned an IC50 of 1 nM. Moreover, on 5-HT3 receptor [2], the “inhibition of reflex bradycardia caused by intravenous 5-HT (von Bezold Jarisch reflex)” value is on record as “inhibited the reflex bradycardia”.

Compound `CCN(C)[C@@H]1CN(C(=O)c2cn(C)c3ccccc23)C[C@@H]1C` (relative stereo) [Example 12, Cis-3-(N-ethyl-N-methyl)amino-4-methyl-1-(1-methylindol-3-ylcarbonyl)pyrrolidine hydrochloride] registered an IC50 at 5-HT3 receptor [1] of 2 nM. Besides, at 5-HT3 receptor [2], the “inhibition of reflex bradycardia caused by intravenous 5-HT (von Bezold Jarisch reflex)” value is recorded as “inhibited the reflex bradycardia”.

Consider `CN(C)C1CCN(C(=O)c2nn(C)c3ccccc23)C1` (centres unmarked) [Example 11, 3-Dimethylamino-(1-methylindazol-3-ylcarbonyl)pyrrolidine hydrochloride], for which, at 5-HT3 receptor [1], the IC50 turned out to be 3 nM.
